Laboratory results taken from paper PMC4076210, “Discovery of Novel AKT Inhibitors with Enhanced Anti-Tumor Effects in Combination with the MEK Inhibitor” (PLoS ONE, 2014).
Read-outs that look alike come from different tables or passages of the source.

Columns and labels:
MARK1(h) = target: T1, MARK1(h) (Homo sapiens, UniProt Q9P0L2); test: Kinase panel; assay type: biochemical
T1 construct: purchased Millipore KinaseProfiler

Rse(h) = target: T2, Rse(h) (Homo sapiens, UniProt Q06418); test: Kinase panel; assay type: biochemical
T2 construct: purchased Millipore KinaseProfiler
T2 sequence (Q06418 41-890): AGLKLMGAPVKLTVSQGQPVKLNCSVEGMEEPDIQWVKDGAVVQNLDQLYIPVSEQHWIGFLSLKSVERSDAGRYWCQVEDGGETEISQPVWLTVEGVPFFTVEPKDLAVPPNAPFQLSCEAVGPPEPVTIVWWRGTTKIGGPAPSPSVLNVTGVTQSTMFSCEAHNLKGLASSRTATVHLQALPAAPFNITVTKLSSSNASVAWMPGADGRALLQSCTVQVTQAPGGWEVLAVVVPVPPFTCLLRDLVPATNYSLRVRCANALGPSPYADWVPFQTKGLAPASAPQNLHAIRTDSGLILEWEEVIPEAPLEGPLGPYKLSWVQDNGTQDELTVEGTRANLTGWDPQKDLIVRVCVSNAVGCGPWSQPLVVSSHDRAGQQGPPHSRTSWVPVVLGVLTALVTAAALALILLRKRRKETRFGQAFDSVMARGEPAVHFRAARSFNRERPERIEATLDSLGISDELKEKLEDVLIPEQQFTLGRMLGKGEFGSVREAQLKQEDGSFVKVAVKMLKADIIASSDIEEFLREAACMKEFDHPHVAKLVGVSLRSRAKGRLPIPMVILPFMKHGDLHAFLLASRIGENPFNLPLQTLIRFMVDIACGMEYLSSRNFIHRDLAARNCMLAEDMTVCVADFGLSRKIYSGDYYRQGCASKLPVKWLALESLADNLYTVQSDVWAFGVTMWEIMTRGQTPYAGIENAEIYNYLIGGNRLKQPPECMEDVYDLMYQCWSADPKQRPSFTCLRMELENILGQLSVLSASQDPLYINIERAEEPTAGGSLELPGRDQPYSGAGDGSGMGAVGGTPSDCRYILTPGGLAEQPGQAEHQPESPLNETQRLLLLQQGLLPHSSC

NLK(h) = target: T3, NLK(h) (Homo sapiens, UniProt Q9UBE8); test: Kinase panel; assay type: biochemical
T3 construct: purchased Millipore KinaseProfiler
T3 sequence (Q9UBE8 1-527): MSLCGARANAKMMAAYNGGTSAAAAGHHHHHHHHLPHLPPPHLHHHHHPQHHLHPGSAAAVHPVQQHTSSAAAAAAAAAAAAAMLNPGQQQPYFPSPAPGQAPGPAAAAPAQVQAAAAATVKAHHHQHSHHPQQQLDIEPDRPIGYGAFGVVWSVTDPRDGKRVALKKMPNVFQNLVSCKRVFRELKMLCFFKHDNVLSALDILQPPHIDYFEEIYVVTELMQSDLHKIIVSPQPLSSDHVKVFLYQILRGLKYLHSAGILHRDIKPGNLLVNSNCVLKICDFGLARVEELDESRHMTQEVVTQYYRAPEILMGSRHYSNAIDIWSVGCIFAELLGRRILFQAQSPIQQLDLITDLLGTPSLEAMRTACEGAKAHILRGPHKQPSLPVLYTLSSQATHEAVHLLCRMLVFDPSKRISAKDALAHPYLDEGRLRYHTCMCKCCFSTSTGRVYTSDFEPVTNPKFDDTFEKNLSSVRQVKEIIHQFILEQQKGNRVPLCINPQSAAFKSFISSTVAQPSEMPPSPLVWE

SRPK1(h) = target: T4, SRPK1(h) (Homo sapiens, UniProt Q96SB4); test: Kinase panel; assay type: biochemical
T4 construct: purchased Millipore KinaseProfiler

CDK5/p25(h) = target: T5, CDK5/p25(h) (Homo sapiens, UniProt Q00535); test: Kinase panel; assay type: biochemical
T5 construct: purchased Millipore KinaseProfiler
T5 sequence (Q00535 whole entry): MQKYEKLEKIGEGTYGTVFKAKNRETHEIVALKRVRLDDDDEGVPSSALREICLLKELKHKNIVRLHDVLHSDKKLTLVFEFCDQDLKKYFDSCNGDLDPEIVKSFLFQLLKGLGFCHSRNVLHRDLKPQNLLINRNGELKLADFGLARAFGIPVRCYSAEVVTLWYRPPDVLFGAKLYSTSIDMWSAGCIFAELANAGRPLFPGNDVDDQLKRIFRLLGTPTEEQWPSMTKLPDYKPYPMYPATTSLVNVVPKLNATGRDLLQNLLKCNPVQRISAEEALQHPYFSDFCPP
T5 sequence (Q15078 99-307 partner limits assumed): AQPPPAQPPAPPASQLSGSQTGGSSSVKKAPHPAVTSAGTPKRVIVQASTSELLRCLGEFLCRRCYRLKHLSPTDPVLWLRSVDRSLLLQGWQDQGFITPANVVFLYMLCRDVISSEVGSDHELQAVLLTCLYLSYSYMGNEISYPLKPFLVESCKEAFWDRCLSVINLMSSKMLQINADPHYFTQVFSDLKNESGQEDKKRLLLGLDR

FGFR4(h) = target: T6, FGFR4(h) (Homo sapiens, UniProt P22455); test: Kinase panel; assay type: biochemical
T6 construct: purchased Millipore KinaseProfiler
T6 sequence (P22455 22-802): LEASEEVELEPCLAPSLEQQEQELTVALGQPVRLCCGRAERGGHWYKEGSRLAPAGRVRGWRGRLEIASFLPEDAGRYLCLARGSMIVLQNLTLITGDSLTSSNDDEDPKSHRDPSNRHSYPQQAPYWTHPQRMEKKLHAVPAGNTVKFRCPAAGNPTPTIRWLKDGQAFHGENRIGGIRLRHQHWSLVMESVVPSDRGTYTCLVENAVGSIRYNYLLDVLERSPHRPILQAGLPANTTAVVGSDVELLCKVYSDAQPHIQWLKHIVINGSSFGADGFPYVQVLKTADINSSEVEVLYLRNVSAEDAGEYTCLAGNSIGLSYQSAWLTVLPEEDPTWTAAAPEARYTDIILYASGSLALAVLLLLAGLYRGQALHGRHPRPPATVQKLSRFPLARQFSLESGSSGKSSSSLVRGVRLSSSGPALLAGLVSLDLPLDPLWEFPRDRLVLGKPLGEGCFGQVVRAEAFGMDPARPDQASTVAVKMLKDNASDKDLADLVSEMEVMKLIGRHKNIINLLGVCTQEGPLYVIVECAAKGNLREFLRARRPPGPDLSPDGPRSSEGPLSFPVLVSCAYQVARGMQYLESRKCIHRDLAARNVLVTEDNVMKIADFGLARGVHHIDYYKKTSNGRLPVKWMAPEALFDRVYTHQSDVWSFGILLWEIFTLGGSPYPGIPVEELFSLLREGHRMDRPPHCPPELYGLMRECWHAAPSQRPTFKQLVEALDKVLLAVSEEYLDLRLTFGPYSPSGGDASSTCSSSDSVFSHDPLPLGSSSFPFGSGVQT

Mnk2(h) = target: T7, Mnk2(h) (Homo sapiens, UniProt Q9HBH9); test: Kinase panel; assay type: biochemical
T7 construct: purchased Millipore KinaseProfiler
T7 sequence (Q9HBH9 whole entry): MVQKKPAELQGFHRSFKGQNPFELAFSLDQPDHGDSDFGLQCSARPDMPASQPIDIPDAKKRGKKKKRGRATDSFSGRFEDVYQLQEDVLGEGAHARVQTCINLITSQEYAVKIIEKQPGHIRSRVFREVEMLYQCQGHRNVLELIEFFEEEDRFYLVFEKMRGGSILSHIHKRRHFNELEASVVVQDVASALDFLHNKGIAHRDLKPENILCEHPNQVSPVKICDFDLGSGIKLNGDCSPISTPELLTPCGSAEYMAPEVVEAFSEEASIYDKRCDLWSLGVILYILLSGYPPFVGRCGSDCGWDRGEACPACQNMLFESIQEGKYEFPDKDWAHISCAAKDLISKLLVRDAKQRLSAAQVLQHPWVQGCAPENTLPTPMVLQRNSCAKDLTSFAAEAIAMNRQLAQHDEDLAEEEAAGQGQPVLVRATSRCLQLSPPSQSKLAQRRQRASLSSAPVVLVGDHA

EphA2(h) = target: T8, EphA2(h) (Homo sapiens, UniProt P29317); test: Kinase panel; assay type: biochemical
T8 construct: purchased Millipore KinaseProfiler

EGFR(T790M,L858R)(h) = target: T9, EGFR(T790M,L858R)(h) (Homo sapiens, UniProt P00533, L858R/T790M); test: Kinase panel; assay type: biochemical
T9 construct: purchased Millipore KinaseProfiler
T9 sequence (P00533 25-1210 T790M/L858R): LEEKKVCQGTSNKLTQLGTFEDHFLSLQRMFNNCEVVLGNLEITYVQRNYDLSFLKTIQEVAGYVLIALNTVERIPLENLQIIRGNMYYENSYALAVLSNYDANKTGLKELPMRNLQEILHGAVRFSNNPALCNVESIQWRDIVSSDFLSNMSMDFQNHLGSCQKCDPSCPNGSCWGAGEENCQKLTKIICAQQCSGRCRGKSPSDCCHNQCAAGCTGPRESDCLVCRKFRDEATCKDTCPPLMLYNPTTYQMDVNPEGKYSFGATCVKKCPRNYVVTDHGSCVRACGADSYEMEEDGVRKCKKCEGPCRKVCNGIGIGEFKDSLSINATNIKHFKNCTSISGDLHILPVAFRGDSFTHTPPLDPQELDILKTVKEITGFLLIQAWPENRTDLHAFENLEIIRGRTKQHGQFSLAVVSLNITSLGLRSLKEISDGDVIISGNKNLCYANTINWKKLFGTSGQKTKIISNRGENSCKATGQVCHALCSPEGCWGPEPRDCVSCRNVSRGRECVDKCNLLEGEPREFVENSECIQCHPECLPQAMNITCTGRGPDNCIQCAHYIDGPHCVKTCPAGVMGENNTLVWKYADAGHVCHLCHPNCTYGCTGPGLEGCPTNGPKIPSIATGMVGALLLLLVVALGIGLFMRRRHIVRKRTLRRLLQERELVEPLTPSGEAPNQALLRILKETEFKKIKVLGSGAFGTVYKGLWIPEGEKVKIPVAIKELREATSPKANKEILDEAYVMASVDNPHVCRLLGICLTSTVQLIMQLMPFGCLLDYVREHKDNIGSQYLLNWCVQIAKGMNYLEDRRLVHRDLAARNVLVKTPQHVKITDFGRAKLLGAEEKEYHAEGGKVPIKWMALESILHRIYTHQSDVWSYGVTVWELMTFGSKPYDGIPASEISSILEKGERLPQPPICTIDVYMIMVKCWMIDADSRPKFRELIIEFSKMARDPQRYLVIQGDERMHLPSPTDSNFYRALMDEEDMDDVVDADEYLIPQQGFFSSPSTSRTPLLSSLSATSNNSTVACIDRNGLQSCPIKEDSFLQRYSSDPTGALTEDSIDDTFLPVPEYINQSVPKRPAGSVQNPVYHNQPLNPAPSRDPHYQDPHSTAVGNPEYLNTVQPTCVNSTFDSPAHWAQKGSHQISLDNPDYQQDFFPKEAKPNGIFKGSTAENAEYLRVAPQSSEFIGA

MAPKAP-K2(h) = target: T10, MAPKAP-K2(h) (Homo sapiens, UniProt P49137); test: Kinase panel; assay type: biochemical
T10 construct: purchased Millipore KinaseProfiler
T10 sequence (P49137 whole entry): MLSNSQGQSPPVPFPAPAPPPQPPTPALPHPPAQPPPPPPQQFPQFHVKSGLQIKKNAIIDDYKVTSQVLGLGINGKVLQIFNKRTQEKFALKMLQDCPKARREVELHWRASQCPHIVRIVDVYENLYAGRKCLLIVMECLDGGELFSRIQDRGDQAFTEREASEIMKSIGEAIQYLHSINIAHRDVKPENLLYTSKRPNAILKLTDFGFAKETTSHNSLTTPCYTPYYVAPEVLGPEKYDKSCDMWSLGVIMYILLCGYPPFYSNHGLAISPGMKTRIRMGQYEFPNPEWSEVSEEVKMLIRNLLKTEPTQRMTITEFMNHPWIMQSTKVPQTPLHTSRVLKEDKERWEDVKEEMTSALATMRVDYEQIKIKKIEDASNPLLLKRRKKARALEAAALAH

pPRAS40 in BT474 = test: phospho-PRAS40 ELISA; assay type: cell-based; conditions: Homo sapiens, BT-474; BT474, mean ± std dev
Method: (§1) ELISA plates were prepared by coating with anti-GSK3β antibody (R&D Systems), and blocked with 5% Milk/0.1% Tween-20. Cells were seeded at 25,000 cells/96-well overnight and treated with DMSO or various concentrations of drug for 1 h. Cells were lysed in 20 mM Tris-HCl (pH 8.0), 137 mM NaCl, 2 mM EDTA, 10% glycerol and 1% Triton X-100 and lysates transferred to ELISA plates and incubated overnight. The plates were washed and incubated with rabbit anti-phospho-GSK3β (Ser9) antibody (R&D Systems) for 1 h. After washing, plates were developed using HRP-linked anti-rabbit IgG, and 3,3′,5,5′-tetramethylbenzidine as substrate. Absorption was measured in a microplate spectrophotometer at 450 nm. The phospho-PRAS40 ELISA followed similar methodology as above with the exception of using a commercially available PRAS40 (pThr246) kit (Biosource) and following manufacturers' instructions for the ELISA analysis.

pPRAS40 in LNCaP = test: phospho-PRAS40 ELISA; assay type: cell-based; conditions: Homo sapiens, mean ± std dev
Method: as §1

Hck(h) = target: T11, Hck(h) (Homo sapiens, UniProt P08631); test: Kinase panel; assay type: biochemical
T11 construct: purchased Millipore KinaseProfiler
T11 sequence (P08631 whole entry): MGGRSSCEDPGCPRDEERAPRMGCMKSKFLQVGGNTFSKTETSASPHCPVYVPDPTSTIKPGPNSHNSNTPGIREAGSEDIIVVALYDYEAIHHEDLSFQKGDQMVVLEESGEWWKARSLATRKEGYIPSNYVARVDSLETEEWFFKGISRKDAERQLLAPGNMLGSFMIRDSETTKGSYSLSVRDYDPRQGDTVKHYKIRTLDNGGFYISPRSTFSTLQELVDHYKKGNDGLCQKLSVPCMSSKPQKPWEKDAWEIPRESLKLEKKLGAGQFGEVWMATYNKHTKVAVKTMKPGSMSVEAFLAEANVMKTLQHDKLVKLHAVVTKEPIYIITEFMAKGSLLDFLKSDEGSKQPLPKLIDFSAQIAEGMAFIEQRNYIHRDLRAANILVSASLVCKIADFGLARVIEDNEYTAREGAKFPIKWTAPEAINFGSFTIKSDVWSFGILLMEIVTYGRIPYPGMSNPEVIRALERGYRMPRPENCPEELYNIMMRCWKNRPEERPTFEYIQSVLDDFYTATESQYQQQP

CDK1/cyclinB(h) = target: T12, CDK1/cyclinB(h) (Homo sapiens, UniProt P06493); test: Kinase panel; assay type: biochemical
T12 construct: purchased Millipore KinaseProfiler
T12 sequence (P06493 whole entry): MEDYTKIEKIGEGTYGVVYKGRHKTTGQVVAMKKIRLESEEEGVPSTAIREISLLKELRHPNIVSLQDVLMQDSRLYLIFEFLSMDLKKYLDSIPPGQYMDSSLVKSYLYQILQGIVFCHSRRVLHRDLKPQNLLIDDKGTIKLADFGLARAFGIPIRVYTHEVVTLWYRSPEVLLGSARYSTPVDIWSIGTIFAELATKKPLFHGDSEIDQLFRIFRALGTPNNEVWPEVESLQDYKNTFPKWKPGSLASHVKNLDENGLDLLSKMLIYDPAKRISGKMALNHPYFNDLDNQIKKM
T12 sequence (P14635 whole entry partner): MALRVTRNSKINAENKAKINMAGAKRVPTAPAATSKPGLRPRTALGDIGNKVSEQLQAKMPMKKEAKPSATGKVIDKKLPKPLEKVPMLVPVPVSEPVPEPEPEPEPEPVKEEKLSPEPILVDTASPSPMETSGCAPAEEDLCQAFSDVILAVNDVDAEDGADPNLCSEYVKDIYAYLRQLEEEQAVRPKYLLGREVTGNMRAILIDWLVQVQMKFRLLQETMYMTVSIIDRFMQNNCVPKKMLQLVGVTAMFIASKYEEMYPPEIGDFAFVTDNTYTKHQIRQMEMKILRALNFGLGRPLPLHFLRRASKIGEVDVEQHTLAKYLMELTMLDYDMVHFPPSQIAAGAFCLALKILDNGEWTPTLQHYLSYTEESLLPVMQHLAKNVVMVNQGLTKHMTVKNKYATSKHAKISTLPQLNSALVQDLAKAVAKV

## Cn1ncc(Cl)c1-c1cc(C(=O)N[C@H](CN)Cc2cccc(F)c2)sc1Cl [GSK2110183]
MARK1(h)
  inhibition at 0.5 µM: 26%
  inhibition at 10 µM: 88%
Rse(h)
  inhibition at 0.5 µM: 6%
  inhibition at 10 µM: 51%
NLK(h)
  inhibition at 0.5 µM: -8%
  inhibition at 10 µM: 32%
SRPK1(h)
  inhibition at 0.5 µM: -1%
  inhibition at 10 µM: 18%
CDK5/p25(h)
  inhibition at 0.5 µM: -4%
  inhibition at 10 µM: 28%
FGFR4(h)
  inhibition at 0.5 µM: 0%
  inhibition at 10 µM: 19%
Mnk2(h)
  inhibition at 0.5 µM: 22%
  inhibition at 10 µM: 84%
EphA2(h)
  inhibition at 0.5 µM: -17%
  inhibition at 10 µM: -4%
EGFR(T790M,L858R)(h)
  inhibition at 0.5 µM: -32%
  inhibition at 10 µM: -3%
MAPKAP-K2(h)
  inhibition at 0.5 µM: -11%
  inhibition at 10 µM: 4%
pPRAS40 in BT474
  IC50: 121 ± 40 nM
pPRAS40 in LNCaP
  IC50: 104 ± 5 nM
Hck(h)
  inhibition at 0.5 µM: -21%
  inhibition at 10 µM: -8%
CDK1/cyclinB(h)
  inhibition at 0.5 µM: -3%
  inhibition at 10 µM: 7%

## Cn1ncc(Cl)c1-c1cc(C(=O)N[C@H](CN)Cc2ccc(F)c(F)c2)oc1Cl [GSK2141795]
MARK1(h); 0.5 µM, read-out: % Inhibition
  inhibition at 0.5 µM: -11%
MARK1(h); 10 µM, read-out: % Inhibition
  inhibition at 10 µM: 53%
Rse(h); 0.5 µM, read-out: % Inhibition
  inhibition at 0.5 µM: 2%
Rse(h); 10 µM, read-out: % Inhibition
  inhibition at 10 µM: 33%
NLK(h); 0.5 µM, read-out: % Inhibition
  inhibition at 0.5 µM: 4%
NLK(h); 10 µM, read-out: % Inhibition
  inhibition at 10 µM: 46%
SRPK1(h); 0.5 µM, read-out: % Inhibition
  inhibition at 0.5 µM: 5%
SRPK1(h); 10 µM, read-out: % Inhibition
  inhibition at 10 µM: 17%
CDK5/p25(h); 0.5 µM, read-out: % Inhibition
  inhibition at 0.5 µM: -8%
CDK5/p25(h); 10 µM, read-out: % Inhibition
  inhibition at 10 µM: 37%
FGFR4(h); 0.5 µM, read-out: % Inhibition
  inhibition at 0.5 µM: 24%
FGFR4(h); 10 µM, read-out: % Inhibition
  inhibition at 10 µM: 19%
Mnk2(h); 0.5 µM, read-out: % Inhibition
  inhibition at 0.5 µM: 9%
Mnk2(h); 10 µM, read-out: % Inhibition
  inhibition at 10 µM: 80%
EphA2(h); 0.5 µM, read-out: % Inhibition
  inhibition at 0.5 µM: 25%
EphA2(h); 10 µM, read-out: % Inhibition
  inhibition at 10 µM: 39%
EGFR(T790M,L858R)(h); 0.5 µM, read-out: % Inhibition
  inhibition at 0.5 µM: -7%
EGFR(T790M,L858R)(h); 10 µM, read-out: % Inhibition
  inhibition at 10 µM: 18%
MAPKAP-K2(h); 0.5 µM, read-out: % Inhibition
  inhibition at 0.5 µM: -6%
MAPKAP-K2(h); 10 µM, read-out: % Inhibition
  inhibition at 10 µM: -12%
pPRAS40 in BT474
  IC50: 39 ± 0.5 nM
pPRAS40 in LNCaP
  IC50: 55 ± 2 nM
Hck(h); 0.5 µM, read-out: % Inhibition
  inhibition at 0.5 µM: -5%
Hck(h); 10 µM, read-out: % Inhibition
  inhibition at 10 µM: 27%
CDK1/cyclinB(h); 0.5 µM, read-out: % Inhibition
  inhibition at 0.5 µM: -5%
CDK1/cyclinB(h); 10 µM, read-out: % Inhibition
  inhibition at 10 µM: 12%
